Source: patent US20080039455A1, “PYRAZOLOPYRIMIDINES AND SALTS THEREOF, PHARMACEUTICAL COMPOSITIONS COMPRISING SAME, METHODS OF PREPARING SAME AND USES OF SAME” (priority 2006, published 2008)
pIC50: −log10 of the molar value.

Target: T1, human recombinant ALK1 (GST fused to ALK1 intracellular domain [His142-Gln503]) (Homo sapiens, UniProt P37023)
T1 construct: GST fused to ALK1 intracellular domain [His142-Gln503]; made in house
T1 sequence (P37023 142-503): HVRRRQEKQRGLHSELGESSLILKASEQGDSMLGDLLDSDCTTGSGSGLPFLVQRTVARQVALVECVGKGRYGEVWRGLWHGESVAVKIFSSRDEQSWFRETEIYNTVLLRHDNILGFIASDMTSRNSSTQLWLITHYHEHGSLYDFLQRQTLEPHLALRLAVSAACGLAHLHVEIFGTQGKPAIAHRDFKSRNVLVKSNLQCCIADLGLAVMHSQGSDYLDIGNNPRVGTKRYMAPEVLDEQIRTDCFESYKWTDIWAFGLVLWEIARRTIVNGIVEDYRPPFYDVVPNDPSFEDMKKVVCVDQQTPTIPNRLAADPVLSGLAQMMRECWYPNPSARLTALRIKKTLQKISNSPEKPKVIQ
Assay: ALK1-Kinase Flashplate-Assay
Type: biochemical
Conditions: 0.5 μM ATP, biotinylated α-casein substrate; read-out: Assay 1 (ALK1-Kinase Flashplate-Assay IC50 class)
From the text: Biological Assay 1: ALK1-Kinase Flashplate-Assay
ALK1 phosphorylates serine/threonine residues of the biotinylated substrate bovine α-casein in the presence of [γ-^33P]ATP. Detection of the radiolabeled phosphorylated product is achieved by binding to streptavidine-coated Flashplates. The biotin moieties of biotinylated casein bind with high affinity to the streptavidine. The radiolabeled biotinylated casein produced by the ALK1 kinase reaction is able to generate a […] signal when strepatavidine-mediated binding occurs to the scintillant-containing surface of the Flashplates due to the close proximity of the radiolabel and the scintillant. […] The signals obtained are therefore indicative of the ALK1 kinase activity. Measurement is performed in a Perkin-Elmer TopCount or Perkin-Elmer ViewLux instrument.
Enzyme: Purified human recombinant ALK1 (GST fused to ALK1 intracellular domain [His142-Gln503]) produced in-house, aliquots stored at −80° C.;
Diluted enzyme working solution: 2.5 ng/μl ALK1 (in assay buffer) freshly prepared and chilled on ice until use.
Substrate: biotinylated bovine α-casein. Unbiotinylated casein obtained from Sigma was biotinylated by standard procedures using N-hydroxysuccinimide (NHS) ester of biotin.
Substrate working solution: 0.83 μM ATP, 1.67 μM biotinylated a-casein, 7.4 nCi [γ-^33P]ATP/μl in assay buffer
Assay plates: 384-well plates, small volume, white, Greiner (# 784075)
Flashplates: Streptavidin-coated Flashplates, Perkin Elmer (384-well # SPM410A)
Assay buffer: 50 mM Tris/HCl pH 8.0, 1 mM MnCl2, 1 mM DTT, 0.01% NP40, 0.5× Complete EDTA-free
Stop solution: 33.3 μM ATP, 33.3 mM EDTA, 0.07% Triton X-100 in PBS
Saturating buffer for Flashplates: 100 μM ATP, 0.2% Triton X-100 in PBS
Sealing tape: Greiner (# 676080)
Protocol for small volume 5 μl assay (all steps are performed at 20° C., pipetted with CyBi-Well and Multidrop Micro): • 1. 50 nl or 250 nl compound in 100% DMSO • 2. addition of 3 μl substrate working solution with CyBi-Well pipettor • 3. addition of 2 μl enzyme working solution with Multidrop Micro incubation for 60 min at room temperature • 4. addition of 15 μl Stop solution with CyBi-Well pipettor • 5. transfer of 18 μl assay mixture to Flashplates** with CyBi-Well pipettor incubation for at least 3 h at room temperature or over night at 4° C. to allow binding to the streptavidine-coated Flashplates • 6. washing the Flashplates 3 times with 50 μl PBS without Ca++ and Mg++ • 7. sealing with sealing tape • 8. Measurement in Topcount (60 sec/well) **Saturation of Flashplates: The Flashplates are preincubated for at least 1 hour with 50 μl saturating buffer. Remove 18 μl from the 50 μl and transfer 18 μl of the assay mixture to the Flashplate.
Final concentrations, calculated for 5 μl reaction volume: ALK1 5 ng/well; 1 μM biotinylated α-casein; 0.5 μM ATP; 22 nCi/well [γ-^33P]ATP; 1 mM MnCl2; 1 mM DTT; 50 mM Tris-HCl; pH 8.0; 0.01% NP40; 0.5× Complete EDTA-free; 1% or 5% DMSO.
The data were normalised (enzyme reaction without inhibitor=0% inhibition, enzyme reaction in the presence of 10 mM EDTA=100% inhibition) and IC50 values were calculated by a 4 parameter fit using an in-house software.

pIC50	SMILES
5.00 to 6.00	COc1cc(-c2cnn3ccc(NCCN(C)C)nc23)cc(OC)c1OC [Example 134, N,N-Dimethyl-N-[3-(3,4,5-trimethoxy-phenyl)-pyrazolo[1,5-a]pyrimidin-5-yl]-ethane-1,2-diamine]
5.00 to 6.00	COc1cc(-c2cnn3ccc(NCc4cccnc4)nc23)cc(OC)c1OC [Example 126, Pyridin-3-ylmethyl-[3-(3,4,5-trimethoxy-phenyl)-pyrazolo[1,5-a]pyrimidin-5-yl]-amine]
> 6.00	Clc1cccc(-c2cnn3ccc(NCc4ccncc4)nc23)c1 [Example 395, [3-(3-Chloro-phenyl)-pyrazolo[1,5-a]pyrimidin-5-yl]-pyridin-4-ylmethyl-amine]
5.00 to 6.00	COc1ccc(Nc2ccn3ncc(-c4cccc(C(=O)NCCO)c4)c3n2)cn1 [Example 92, N-(2-Hydroxy-ethyl)-3-[5-(6-methoxy-pyridin-3-ylamino)-pyrazolo[1,5-a]pyrimidin-3-yl]-benzamide]
5.00 to 6.00	COc1cncc(-c2cnn3ccc(Nc4ccc(C)c(NS(C)(=O)=O)c4)nc23)c1 [Example 107, N-{5-[3-(5-Methoxy-pyridin-3-yl)-pyrazolo[1,5-a]pyrimidin-5-ylamino]-2-methyl-phenyl}-methanesulfonamide]
> 6.00	COc1cc(-c2cnn3ccc(Nc4ccc(C)c(NS(C)(=O)=O)c4)nc23)ccc1O [Example 151]
5.00 to 6.00	COc1cc(-c2cnn3ccc(Nc4ccc(Oc5ccccc5)cc4)nc23)cc(OC)c1OC [Example 254, (4-Phenoxy-phenyl)-[3-(3,4,5-trimethoxy-phenyl)-pyrazolo[1,5-a]pyrimidin-5-yl]-amine]
5.00 to 6.00	Clc1cccc(-c2cnn3ccc(NCc4cccnc4)nc23)c1 [Example 402, [3-(3-Chloro-phenyl)-pyrazolo[1,5-a]pyrimidin-5-yl]-pyridin-3-ylmethyl-amine]
> 6.00	COc1cc(-c2cnn3ccc(Nc4cccc(Cl)c4)nc23)cc(OC)c1OC [Example 306, (3-Chloro-phenyl)-[3-(3,4,5-trimethoxy-phenyl)-pyrazolo[1,5-a]pyrimidin-5-yl]-amine]
5.00 to 6.00	COc1ccccc1-c1cnn2ccc(Nc3ccc(O)cc3)nc12 [Example 84, 4-[3-(2-Methoxy-phenyl)-pyrazolo[1,5-a]pyrimidin-5-ylamino]-phenol]
> 6.00	COc1ncc(-c2cnn3ccc(Nc4ccc(O)cc4)nc23)c(OC)n1 [Example 46, 4-[3-(2,4-Dimethoxy-pyrimidin-5-yl)-pyrazolo[1,5-a]pyrimidin-5-ylamino]-phenol]
5.00 to 6.00	COc1cccc(-c2cnn3ccc(Nc4ccc(NS(=O)(=O)c5ccc(C)cc5)cc4)nc23)c1 [Example 200, N-{4-[3-(3-Methoxy-phenyl)-pyrazolo[1,5-a]pyrimidin-5-ylamino]-phenyl}-4-methyl-benzenesulfonamide]
5.00 to 6.00	COc1cc(Nc2ccn3ncc(-c4ccncc4)c3n2)cc(OC)c1OC [Example 4, (3-Pyridin-4-yl-pyrazolo[1,5-a]pyrimidin-5-yl)-(3,4,5-trimethoxy-phenyl)-amine]

The remaining lines, values behind:

SMILES	pIC50
OCc1cccc(-c2cnn3ccc(NC4CCC(O)CC4)nc23)c1 (stereo not drawn) [Example 158, 4-[3-(3-Hydroxymethyl-phenyl)-pyrazolo[1,5-a]pyrimidin-5-ylamino]-cyclohexanol]	5.00 to 6.00
COc1ccc(-c2cnn3ccc(NCc4cccnc4)nc23)cc1 [Example 167, [3-(4-Methoxy-phenyl)-pyrazolo[1,5-a]pyrimidin-5-yl]-pyridin-3-ylmethyl-amine]	5.00 to 6.00
CC(=O)Nc1cccc(-c2cnn3ccc(Nc4ccc(N5CCOCC5)cc4)nc23)c1 [Example 29, N-{3-[5-(4-Morpholin-4-yl-phenylamino)-pyrazolo[1,5-a]pyrimidin-3-yl]-phenyl}-acetamide]	5.00 to 6.00
OCCNc1ccn2ncc(-c3ccc4c(c3)OCO4)c2n1 [Example 70, 2-(3-Benzo[1,3]dioxol-5-yl-pyrazolo[1,5-a]pyrimidin-5-ylamino)-ethanol]	5.00 to 6.00
NC(=O)c1cccc(-c2cnn3ccc(NCc4ccncc4)nc23)c1 [Example 213, 3-{5-[(Pyridin-4-ylmethyl)-amino]-pyrazolo[1,5-a]pyrimidin-3-yl}-benzamide]	5.00 to 6.00
OCc1cccc(-c2cnn3ccc(NCc4cccnc4)nc23)c1 [Example 170, (3-{5-[(Pyridin-3-ylmethyl)-amino]-pyrazolo[1,5-a]pyrimidin-3-yl}-phenyl)-methanol]	5.00 to 6.00
NC(=O)c1cccc(-c2cnn3ccc(NCc4cccnc4)nc23)c1 [Example 223, 3-{5-[(Pyridin-3-ylmethyl)-amino]-pyrazolo[1,5-a]pyrimidin-3-yl}-benzamide]	5.00 to 6.00
CC(=O)c1cccc(-c2cnn3ccc(Nc4ccc(NS(=O)(=O)c5ccc(C)cc5)cc4)nc23)c1 [Example 201, N-{4-[3-(3-Acetyl-phenyl)-pyrazolo[1,5-a]pyrimidin-5-ylamino]-phenyl}-4-methyl-benzenesulfonamide]	5.00 to 6.00
FC(F)(F)Oc1cccc(-c2cnn3ccc(Nc4ccc(N5CCOCC5)cc4)nc23)c1 [Example 129, (4-Morpholin-4-yl-phenyl)-[3-(3-trifluoromethoxy-phenyl)-pyrazolo[1,5-a]pyrimidin-5-yl]-amine]	5.00 to 6.00
c1cc(CNc2ccn3ncc(-c4ccc5c(c4)OCO5)c3n2)ccn1 [Example 61, (3-Benzo[1,3]dioxol-5-yl-pyrazolo[1,5-a]pyrimidin-5-yl)-pyridin-4-ylmethyl-amine]	> 6.00
OCCNc1ccn2ncc(-c3cccc(OC(F)(F)F)c3)c2n1 [Example 122, 2-[3-(3-Trifluoromethoxy-phenyl)-pyrazolo[1,5-a]pyrimidin-5-ylamino]-ethanol]	5.00 to 6.00
FC(F)(F)c1cccc(-c2cnn3ccc(NCc4ccncc4)nc23)c1 [Example 397, Pyridin-4-ylmethyl-[3-(3-trifluoromethyl-phenyl)-pyrazolo[1,5-a]pyrimidin-5-yl]-amine]	5.00 to 6.00
COc1cncc(-c2cnn3ccc(NC4CCC(O)CC4)nc23)c1 (stereo not drawn) [Example 116, 4-[3-(5-Methoxy-pyridin-3-yl)-pyrazolo[1,5-a]pyrimidin-5-ylamino]-cyclohexanol]	5.00 to 6.00
Cn1cc(-c2cnn3ccc(Nc4ccc(O)cc4)nc23)cn1 [Example 194, 4-[3-(1-Methyl-1H-pyrazol-4-yl)-pyrazolo[1,5-a]pyrimidin-5-ylamino]-phenol]	5.00 to 6.00
COc1ccc(-c2cnn3ccc(Nc4ccc(N5CCOCC5)cc4)nc23)cc1 [Example 173, [3-(4-Methoxy-phenyl)-pyrazolo[1,5-a]pyrimidin-5-yl]-(4-morpholin-4-yl-phenyl)-amine]	5.00 to 6.00
CN(C)CCNc1ccn2ncc(-c3ccc(C(=O)O)cc3)c2n1 [Example 136, 4-[5-(2-Dimethylamino-ethylamino)-pyrazolo[1,5-a]pyrimidin-3-yl]-benzoic acid]	5.00 to 6.00
NC(=O)c1cccc(-c2cnn3ccc(Nc4ccc(N5CCOCC5)cc4)nc23)c1 [Example 232, 3-[5-(4-Morpholin-4-yl-phenylamino)-pyrazolo[1,5-a]pyrimidin-3-yl]-benzamide]	> 6.00
